Test results from patent US7994172B2, “[1H-pyrazolo[3, 4-D]pyrimidin-4-yl]-piperidine or -piperazine compounds as serine-theoronine kinase modulators (P70s6k, Atk1 and Atk2) for the treatment of immunological, inflammatory and proliferative diseases” (Exelixis, Inc., priority 2004, dated 2011).

How the values were obtained:
[1] = molecular target: T1, human p70S6 kinase (p70S6K, kinase domain residues 1-421, T412E mutation) (Homo sapiens, UniProt P23443, T412E); test: p70S6 kinase assay, Luciferase-Coupled Chemiluminescent Kinase assay (LCCA); assay type: biochemical; settings: 5 μM ATP, 12 nM p70S6K; read-out: p70S6K inhibition IC50
T1 construct: human p70S6 kinase domainresidues 1-421, containing a T412E mutation; made in house
Method: (§1) Kinase activity and compound inhibition are investigated using one or more of the three assay formats described below. The ATP concentrations for each assay are selected to be close to the Michaelis-Menten constant (KM) for each individual kinase. Dose-response experiments are performed at 10 different inhibitor concentrations in a 384-well plate format. The data are fitted to four-parameter equation (2) below; where Y is the observed signal, X is the inhibitor concentration, Min is the background signal in the absence of enzyme (0% enzyme activity), Max is the signal in the absence of inhibitor (100% enzyme activity), IC50 is the inhibitor concentration at 50% enzyme inhibition and H represents the empirical Hill's slope to measure the cooperativity. Typically H is close to unity. Y=Min+(Max−Min)/(1+(X/IC50)^H) Equation (2) p70S6 Kinase Assay
Biochemical activity of p70S6 kinase was assessed using a Luciferase-Coupled Chemiluminescent Kinase assay (LCCA) format. Kinase activity was measured as the percent ATP remaining following the kinase reaction. Remaining ATP was detected by luciferase-luciferin-coupled chemiluminescence. Specifically, the reaction was initiated by mixing test compounds, 5 μM ATP, 5 μM RRRLSSLRA peptide and 12 nM p70S6K (baculovirus expressed human p70S6 kinase domainresidues 1-421, containing a T412E mutation) in a 20 uL assay buffer (20 mM Tris-HCL pH 7.5, 10 mM MgCl2, 0.02% Triton X-100, 100 mM DTT, 2 mM MnCl2). The mixture is incubated at ambient temperature for 2 hours after which 20 μL luciferase-luciferin mix is added and the chemiluminescent signal read using a Wallac Victor^2 reader. The luciferase-luciferin mix consists of 50 mM HEPES, pH 7.8, 8.5 μg/mL oxalic acid (pH 7.8), 5 (or 50) mM DTT, 0.4% Triton X-100, 0.25 mg/mL coenzyme A, 63 uM AMP, 28 μg/mL luciferin and 40,000 units/mL luciferase.

[2] = molecular target: T2, human Akt1 kinase (kinase domain residues R144-A480, activated with PDK1) (Homo sapiens, UniProt P31749); test: Akt1 kinase assay, Luciferase-Coupled Chemiluminescent Kinase assay (LCCA); assay type: biochemical; settings: 1 μM ATP, 1.3 nM Akt1; read-out: Akt-1 inhibition IC50
T2 construct: made in house
Method: as §1
Biochemical activity of Akt1 kinase was assessed using a Luciferase-Coupled Chemiluminescent Kinase assay (LCCA) format. Kinase activity was measured as the percent ATP remaining following the kinase reaction. Remaining ATP was detected by luciferase-luciferin-coupled chemiluminescence. Specifically, the reaction was initiated by mixing test compounds, 1 μM ATP, 5 μM crosstide peptide and 1.3 nM Akt1 (baculovirus expressed human Akt1 kinase domain residues R144-A480, activated with PDK1) in a 20 uL assay buffer (20 mM Tris-HCL pH 7.5, 10 mM MgCl2, 0.01% Triton X-100, 1 mM DTT, 3 mM MnCl2). The mixture is incubated at ambient temperature for 3 hours after which 20 μL luciferase-luciferin mix is added and the chemiluminescent signal read using a Wallac Victor2 reader. The luciferase-luciferin mix consists of 50 mM HEPES, pH 7.8, 8.5 μg/mL oxalic acid (pH 7.8), 5 (or 50) mM DTT, 0.4% Triton X-100, 0.25 mg/mL coenzyme A, 63 uM AMP, 28 μg/mL luciferin and 40,000 units/mL luciferase.

T2 sequence (P31749 144-480): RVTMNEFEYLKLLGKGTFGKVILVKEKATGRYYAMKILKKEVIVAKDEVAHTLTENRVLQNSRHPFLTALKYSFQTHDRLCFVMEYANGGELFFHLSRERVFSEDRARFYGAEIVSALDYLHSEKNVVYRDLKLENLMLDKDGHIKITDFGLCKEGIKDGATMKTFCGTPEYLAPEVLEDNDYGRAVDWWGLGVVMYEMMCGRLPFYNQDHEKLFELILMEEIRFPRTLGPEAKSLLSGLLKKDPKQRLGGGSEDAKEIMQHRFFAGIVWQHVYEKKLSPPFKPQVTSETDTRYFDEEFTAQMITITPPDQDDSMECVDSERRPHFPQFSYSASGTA
T1 sequence (P23443 1-421 T412E): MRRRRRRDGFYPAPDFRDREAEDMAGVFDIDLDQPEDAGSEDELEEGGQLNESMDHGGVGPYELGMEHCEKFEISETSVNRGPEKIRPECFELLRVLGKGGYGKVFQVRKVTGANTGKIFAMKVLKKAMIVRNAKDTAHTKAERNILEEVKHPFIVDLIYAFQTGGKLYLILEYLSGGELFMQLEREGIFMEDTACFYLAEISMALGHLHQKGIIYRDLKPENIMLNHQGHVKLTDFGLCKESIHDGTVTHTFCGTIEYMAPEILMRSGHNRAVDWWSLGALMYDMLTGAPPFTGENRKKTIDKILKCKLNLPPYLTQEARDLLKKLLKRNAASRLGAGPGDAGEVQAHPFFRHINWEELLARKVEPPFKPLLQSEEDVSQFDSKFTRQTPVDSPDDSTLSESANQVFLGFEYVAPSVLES

SMILES: Fc1cc(Cl)ccc1CN1CCN(c2ncnc3[nH]nc(Br)c23)CC1 [Entry 17, 3-bromo-4-{4-[(4-chloro-2-fluorophenyl)methyl]piperazin-1-yl}-1H-pyrazolo[3,4-d]pyrimidine]
- IC50 [1]: < 50 nM
- IC50 [2]: 50 to 500 nM

SMILES: CCN(CC)CCN(c1ccc(Cl)cc1)C1CCN(c2ncnc3[nH]nc(Br)c23)CC1 [Entry 18, N-[1-(3-bromo-1H-pyrazolo[3,4-d]pyrimidin-4-yl)piperidin-4-yl]-N-(4-chlorophenyl)-N′,N′-diethylethane-1,2-diamine]
- IC50 [1]: < 50 nM
- IC50 [2]: < 50 nM

SMILES: O=C(c1ccc(F)cc1)C1CCN(c2ncnc3[nH]nc(Br)c23)CC1 [Entry 20, [1-(3-bromo-1H-pyrazolo[3,4-d]pyrimidin-4-yl)piperidin-4-yl](4-fluorophenyl)methanone]
- IC50 [1]: < 50 nM
- IC50 [2]: < 50 nM

SMILES: CCN(CC)CCN(C)C(c1ccc(Cl)cc1)C1CCN(c2ncnc3[nH]nc(Br)c23)CC1 (centres unmarked) [Entry 21, N-[[1-(3-bromo-1H-pyrazolo[3,4-d]pyrimidin-4-yl)piperidin-4-yl](4-chlorophenyl)methyl]-N′,N′-diethyl-N-methylethane-1,2-diamine]
- IC50 [1]: < 50 nM
- IC50 [2]: < 50 nM

SMILES: OC(c1ccc(F)cc1)C1CCN(c2ncnc3[nH]nc(Br)c23)CC1 (centres unmarked) [Entry 22, [1-(3-bromo-1H-pyrazolo[3,4-d]pyrimidin-4-yl)piperidin-4-yl](4-fluorophenyl)methanol]
- IC50 [1]: < 50 nM
- IC50 [2]: 50 to 500 nM

SMILES: Fc1cc(C(F)(F)F)ccc1CN1CCN(c2ncnc3[nH]nc(Br)c23)CC1 [Entry 23, 3-bromo-4-(4-{[2-fluoro-4-(trifluoromethyl)phenyl]methyl}piperazin-1-yl)-1H-pyrazolo[3,4-d]pyrimidine]
- IC50 [1]: < 50 nM
- IC50 [2]: 50 to 500 nM

SMILES: CCN(CC)CCC(=O)N(c1ccc(Cl)cc1)C1CCN(c2ncnc3[nH]nc(Br)c23)CC1 [Entry 24, N-[1-(3-bromo-1H-pyrazolo[3,4-d]pyrimidin-4-yl)piperidin-4-yl]-N-(4-chlorophenyl)-N~3~,N~3~-diethyl-beta-alaninamide]
- IC50 [1]: < 50 nM
- IC50 [2]: < 50 nM

SMILES: CN(C)CCOC(c1ccc(F)cc1)C1CCN(c2ncnc3[nH]nc(Br)c23)CC1 (centres unmarked) [Entry 25, 2-{[[1-(3-bromo-1H-pyrazolo[3,4-d]pyrimidin-4-yl)piperidin-4-yl](4-fluorophenyl)methyl]oxy}-N,N-dimethylethanamine]
- IC50 [1]: < 50 nM
- IC50 [2]: < 50 nM

SMILES: CCN(CC)CCC(=O)NC(c1ccc(Cl)cc1)C1CCN(c2ncnc3[nH]nc(Br)c23)CC1 (stereo not drawn) [Entry 26, N-[[1-(3-bromo-1H-pyrazolo[3,4-d]pyrimidin-4-yl)piperidin-4-yl](4-chlorophenyl)methyl]-N~3~,N~3~-diethyl-beta-alaninamide]
- IC50 [1]: < 50 nM
- IC50 [2]: < 50 nM

SMILES: CN(C)CCNC(=O)C(=O)N(c1ccc(Cl)cc1)C1CCN(c2ncnc3[nH]nc(Br)c23)CC1 [Entry 28, N-[1-(3-bromo-1H-pyrazolo[3,4-d]pyrimidin-4-yl)piperidin-4-yl]-N-(4-chlorophenyl)-N′-[2-(dimethylamino)ethyl]ethanediamide]
- IC50 [1]: < 50 nM
- IC50 [2]: < 50 nM

SMILES: CCN(CC)CCS(=O)(=O)N(c1ccc(Cl)cc1)C1CCN(c2ncnc3[nH]nc(Br)c23)CC1 [Entry 29, N-[1-(3-bromo-1H-pyrazolo[3,4-d]pyrimidin-4-yl)piperidin-4-yl]-N-(4-chlorophenyl)-2-(diethylamino)ethanesulfonamide]
- IC50 [1]: < 50 nM
- IC50 [2]: < 50 nM

SMILES: C=CCCC(=O)N(c1ccc(Cl)cc1)C1CCN(c2ncnc3[nH]nc(Br)c23)CC1 [Entry 35, N-[1-(3-bromo-1H-pyrazolo[3,4-d]pyrimidin-4-yl)piperidin-4-yl]-N-(4-chlorophenyl)pent-4-enamide]
- IC50 [1]: < 50 nM
- IC50 [2]: 50 to 500 nM

SMILES: Clc1ccc(CC2CCN(c3ncnc4[nH]nc(Br)c34)CC2)cc1Cl [Entry 40, 3-bromo-4-{4-[(3,4-dichlorophenyl)methyl]piperidin-1-yl}-1H-pyrazolo[3,4-d]pyrimidine]
- IC50 [1]: < 50 nM
- IC50 [2]: > 2000 nM

SMILES: COC(=O)c1ccc(CN2CCN(c3ncnc4[nH]nc(Br)c34)CC2)cc1 [Entry 42, methyl 4-{[4-(3-bromo-1H-pyrazolo[3,4-d]pyrimidin-4-yl)piperazin-1-yl]methyl}benzoate]
- IC50 [1]: < 50 nM
- IC50 [2]: > 2000 nM

SMILES: CCN(CC)CCCNC(=O)C1(Cc2ccc(Cl)cc2)CCN(c2ncnc3[nH]nc(Br)c23)CC1 [Entry 44, 1-(3-bromo-1H-pyrazolo[3,4-d]pyrimidin-4-yl)-4-[(4-chlorophenyl)methyl]-N-[3-(diethylamino)propyl]piperidine-4-carboxamide]
- IC50 [1]: < 50 nM
- IC50 [2]: 50 to 500 nM

SMILES: CCN(CC)CCCNC(=O)C1(c2ccc(Cl)cc2)CCN(c2ncnc3[nH]nc(Br)c23)CC1 [Entry 49, 1-(3-bromo-1H-pyrazolo[3,4-d]pyrimidin-4-yl)-4-(4-chlorophenyl)-N-[3-(diethylamino)propyl]piperidine-4-carboxamide]
- IC50 [1]: < 50 nM
- IC50 [2]: 500 to 2000 nM

SMILES: Clc1ccc(NC2CCN(c3ncnc4[nH]nc(Br)c34)CC2)cc1 [Entry 59, 1-(3-bromo-1H-pyrazolo[3,4-d]pyrimidin-4-yl)-N-(4-chlorophenyl)piperidin-4-amine]
- IC50 [1]: 50 to 500 nM
- IC50 [2]: > 2000 nM

SMILES: O=[N+]([O-])c1cc(CN2CCN(c3ncnc4[nH]nc(Br)c34)CC2)ccc1Oc1ccc(F)cc1 [Entry 65, 3-bromo-4-[4-({4-[(4-fluorophenyl)oxy]-3-nitrophenyl}methyl)piperazin-1-yl]-1H-pyrazolo[3,4-d]pyrimidine]
- IC50 [1]: 500 to 2000 nM
- IC50 [2]: > 2000 nM

SMILES: Clc1cc(CN2CCN(c3ncnc4[nH]nc(Br)c34)CC2)ccc1OCc1ccccc1 [Entry 80, 3-bromo-4-[4-({3-chloro-4-[(phenylmethyl)oxy]phenyl}methyl)piperazin-1-yl]-1H-pyrazolo[3,4-d]pyrimidine]
- IC50 [1]: > 2000 nM
- IC50 [2]: > 2000 nM

SMILES: O=C(NCCCN1CCOCC1)c1ccc(CN2CCN(c3ncnc4[nH]nc(Br)c34)CC2)cc1 [Entry 81, 4-{[4-(3-bromo-1H-pyrazolo[3,4-d]pyrimidin-4-yl)piperazin-1-yl]methyl}-N-(3-morpholin-4-ylpropyl)benzamide]
- IC50 [1]: > 2000 nM
- IC50 [2]: > 2000 nM

SMILES: COCCCNC(=O)c1ccc(CN2CCN(c3ncnc4[nH]nc(Br)c34)CC2)cc1 [Entry 82, 4-{[4-(3-bromo-1H-pyrazolo[3,4-d]pyrimidin-4-yl)piperazin-1-yl]methyl}-N-[3-(methyloxy)propyl]benzamide]
- IC50 [1]: > 2000 nM
- IC50 [2]: > 2000 nM

SMILES: CN(C)CCOCC1CN(c2ncnc3[nH]nc(Br)c23)CCN1Cc1ccc(Cl)cc1 (centres unmarked) [Entry 83, 2-[({4-(3-bromo-1H-pyrazolo[3,4-d]pyrimidin-4-yl)-1-[(4-chlorophenyl)methyl]piperazin-2-yl}methyl)oxy]-N,N-dimethylethanamine]
- IC50 [1]: > 2000 nM
- IC50 [2]: > 2000 nM

SMILES: O=[N+]([O-])c1cc(CN2CCN(c3ncnc4[nH]nc(Br)c34)CC2)ccc1Oc1ccc(Cl)cc1 [Entry 84, 3-bromo-4-[4-({4-[(4-chlorophenyl)oxy]-3-nitrophenyl}methyl)piperazin-1-yl]-1H-pyrazolo[3,4-d]pyrimidine]
- IC50 [1]: > 2000 nM
- IC50 [2]: > 2000 nM

SMILES: CN(C)CCO[C@@H](c1ccc(Cl)cc1)C1CCN(c2ncnc3[nH]nc(Br)c23)CC1 [Entry 86, 2-{[(R)-[1-(3-bromo-1H-pyrazolo[3,4-d]pyrimidin-4-yl)piperidin-4-yl](4-chlorophenyl)methyl]oxy}-N,N-dimethylethanamine]
- IC50 [1]: < 50 nM
- IC50 [2]: < 50 nM

SMILES: CN(C)CCNC(=O)N(c1ccc(Br)c(F)c1)C1CCN(c2ncnc3[nH]nc(Br)c23)CC1 [Entry 87, N-(4-bromo-3-fluorophenyl)-N-[1-(3-bromo-1H-pyrazolo[3,4-d]pyrimidin-4-yl)piperidin-4-yl]-N′-[2-(dimethylamino)ethyl]urea]
- IC50 [1]: < 50 nM
- IC50 [2]: < 50 nM
